US8552064B2, “Suramin and derivatives thereof as topical microbicide and contraceptive” (Eastern Virginia Medical School, priority 2005, dated 2013)
≈ marks a conversion by molar mass, not a printed value. Read-outs that look alike come from different tables or passages of the source.

Columns and labels:
sperm = test: Sander Cramer sperm immobilization test; format: cell-based
Description: The Sander Cramer test was used to determine the effect on sperm immobilization as described in Sander F V and Cramer S D., Hum. Fertil. 6: 134-153 (1941). This test may be used to evaluate the sperm-immobilizing effectiveness of contraceptive compositions. Serial dilutions of each test composition were added to semen adjusted to a designated number, e.g., 60 million of motile sperm per milliliter at room temperature (i.e., 25° C.). The end point is the greatest dilution at which all of the sperm are immobilized within 20 seconds. Results are expressed as minimum effective concentration in milligrams per milliliter.

[1] = test system: human sperm, zona-free hamster eggs; test: Hamster-egg penetration test (HEPT); format: cell-based
Description: The hamster-egg penetration test (HEPT) was used to predict the fertilizing ability of human sperm by evaluating the sperm's ooctye-penetration capability as described in Yanagimachi R. et al., Biol. Reprod., 15: 471-6 (1976). The zona pellucida of hamster eggs was dissolved by treatment with a protease, and human sperm were subsequently added to the zona free eggs. Sperm binding and penetration were assessed under a standard microscope (60× magnification) after placing the sperm-egg complexes onto polylysine-coated glass slides and covered them with 22×22 mm glass coverslips. The ability of the sperm to bind and enter the egg was scored by counting the sperm nuclei lying within the egg cytoplasm. The effect of the test compound was determined by comparing the number of sperm bound to the surface of the eggs and the percentage of penetrated eggs.

HIV-1 IIIB = test: Viral entry inhibition, cell-free HIV-1 IIIB, CD4/coreceptor expressing HeLa cells; format: cell-based; settings: Human immunodeficiency virus 1, IIIB
HIV-1 Ba-L = test: C-MAGI/Ba-L assay (viral entry inhibition, BaL); format: cell-based; settings: for IC50: Human immunodeficiency virus 1, BAL
Description: The C-MAGI/Ba-L assays were carried out with MAGI-CCR-5 cells. The cell line was maintained in DMEM medium containing 10% FBS, 100 U/ml penicillin, 300 μg/mL glutamate and selection antibiotics as indicated above. Before assay, the cells were placed in 96 well flat tissue culture plates at 1×10^4 cells per well, and incubated overnight in the absence of antibiotics. The next day, medium was removed, and virus and compound (100 μL virus (HIVBa-L)+100 μL compound) were added. The cultures were incubated for 2 hours to facilitate virus attachment. After this incubation, the medium is removed from the wells, replaced with fresh compound-free medium, washed twice and finally incubated at 37° C. for 2 days in fresh medium. Following incubation, the medium was removed and induction of β-galactosidase enzyme activity was detected by chemiluminescence. β-galactosidase activity was detected using a chemiluminescence substrate, following the manufacture's instructions (Tropix). The TC50 and IC50 are determined using linear regression and a therapeutic index or antiviral index calculated. The results of this assay are provided herein.

SIV = SIV reverse transcriptase assay; format: cell-based
Description: Reverse transcriptase activity, a measurement of virus replication, was measured in cell-free supernatants. Tritiated thymidine triphosphate (NEN) (TFP) was resuspended in distilled H2O at 5 Ci/mL. Poly rA and oligo dT were prepared as a stock solution which was kept at −20° C. The RT reaction buffer was prepared fresh on a daily basis and consisted of 125 μL 1.0 M EGTA, 125 μL dH2O, 110 μL 10% […], 50 μL 1.0 M Tris (pH 7.4), 50 μL 1.0 M DTT, and 40 μL 1.0 M MgCl2. These three solutions were mixed together in a ratio of 2 parts TTP, 1 part poly rA:oligo dT, and 1 part reaction buffer. Ten microliters (10 μL) of this reaction mixture was placed in a round bottom microtiter plate and 15 μL of virus containing supernatant added and mixed. The plate was incubated at 37° C. for 60 minutes. Following reaction, the reaction volume was spotted onto pieces of DE81 paper, washed 5 times for 5 minutes each in a 5% sodium phosphate buffer, 2 times for 1 minute each in distilled water, 2 times for 1 minute each in 70% ethanol, and then dried. Opti-Fluor 0 was added to each sample and incorporated radioactivity quantitated utilizing a Wallac 1450 Microbetaplus liquid scintillation counter. The results of this assay are provided herein.

Neisseria gonorrhoeae = test: Gonococcal growth inhibition (multiplication assay); format: cell-based
Description: Gonococcal growth inhibition assays were performed by the method of Anderson R. A., et al., J. Androl., 21: 862-875; 2000. Briefly, Neisseria gonorrhea from local uncomplicated cases of gonorrhea were isolated (verified by Gram stain, oxidase reactivity and sugar fermentation). The titer of log-phase cultures were adjusted by dilution in GC broth to 0.5 McFarland standard (approximately 10^8 colony forming units per ml). This was diluted 1:10 with broth that contained no additions (control), and each of serial 1:10 dilutions of test agent, ranging from 1 mg/ml to 1.0 μg/ml. The cultures were incubated at 37° C. for four hours. Four serial 1:10 dilutions were made in GC broth, and a portion of each dilution was inoculated onto GC agar plates. The plates were incubated overnight, and resultant gonococcal colonies were counted under bright-field microscopy. Data for each concentration of suramin were expressed as the number of colony-forming units (CFU) per ml of the original log-phase bacterial suspension.

[2] = Pharmacokinetics in female rats, intravenous and intravaginal; format: in vivo, rat; settings: for Vd: read-out: Vdss
Description: Female rats (n=6) were administered with 30 mg of compound per kg in a single I.V. dose in saline or intravaginally, BID, for 5 days, formulated in KY jelly. The selected single dose represented 10 times the estimated human dose (250 mg). […] Following intravenous administration, relatively high concentrations of suramin sodium (mean value=563 μg/mL) were measured in plasma at 1 hour (first time-point) following the onset of dosing. […] The mean volume of distribution was calculated at 147 mL/kg.

[3] = female, rat, plasma, IV: single dose 30 mg/kg
[4] = female, rat, plasma, IVag: 30 mg/kg BID for 5 days

Q: What does the source list for `Cc1ccc(C(=O)Nc2ccc(S(=O)(=O)O)c3cc(S(=O)(=O)O)cc(S(=O)(=O)O)c23)cc1NC(=O)c1cccc(NC(=O)Nc2cccc(C(=O)Nc3cc(C(=O)Nc4ccc(S(=O)(=O)O)c5cc(S(=O)(=O)O)cc(S(=O)(=O)O)c45)ccc3C)c2)c1` [Suramin, 8,8′-(carbonylbis(imino-3,1-phenylenecarbonylimino(4-methyl-3,1-phenylene)carbonylimino))bis-1,3,5-naphthalene trisulfonic acid]?
A: sperm-immobilizing activity (sperm; 20 mg/mL): no significant sperm-immobilizing activity; sperm motility in Sander Cramer test (sperm; 10 and 5 mg/mL): all spermatozoa from samples were motile; Potency, Motility (Sander Cramer, Motility, CASA) (sperm; highest concentration = 25 mg/mL): None; Potency, Oolemma binding/Penetration (HEPT) [1]: High; inhibition of penetration [1]: 100%; inhibition of sperm binding to hamster zona-free oocytes [1]: 75%; sperm penetration/fertilization of zona-free eggs ([1]; n=28 oocytes): completely abolished sperm penetration/fertilization; IC50 (HIV-1 IIIB; HeLa, 2 h-incubation, read-out: IC50 against IIIB, viral entry assay): 18.5 µg/mL (≈ 14.3 µM); IC50 (HIV-1 IIIB; CD4/coreceptor expressing HeLa cells, incubation 2 hours, read-out: IC50, Cell-Free Strains IIIB): 18.5 µg/mL (≈ 14.3 µM); Potency, HIV-1 MAGI-Bal (HIV-1 Ba-L): High; IC50 (HIV-1 Ba-L; HeLa, 2 h, read-out: IC50, Cell-Free Strains BaL, CD4/coreceptor expressing HeLa cells, incubation 2 hours): 5.5 µg/mL (≈ 4.24 µM); IC50 (HIV-1 Ba-L; 2h-incubation, read-out: IC50 against Bal): 0.39 µg/mL (≈ 0.301 µM); Potency, SIV Reverse transcriptase (SIV): High; IC50 (SIV; Simian immunodeficiency virus): 4 µg/mL (≈ 3.08 µM); Potency, Gonococcus (GC) Multiplication (Neisseria gonorrhoeae): Moderate; inhibition of GC growth (multiplication assay) (Neisseria gonorrhoeae; 1 mg/mL): completely inhibited GC growth; dose-response of GC growth (Neisseria gonorrhoeae; 1-1000 μg/mL): no clear dose-response; inhibition at 1000 µg/mL (Neisseria gonorrhoeae; Neisseria gonorrhoeae, 1 mg/mL, read-out: inhibition of GC multiplication): 100%; clinical signs ([2]; 30 mg/kg I.V. or intravaginally BID 5 days): No clinical signs were observed; t½ ([2]; IV: single dose 30 mg/kg, 30 mg/kg): 68.6 h; Kel ([2]; IV: single intravenous dose of 30 mg/kg, female rats, plasma): 0.0102; t½ ([2]; IVag: 30 mg/kg BID for 5 days, listed as Suramin sodium): 132 h; Kel ([2]; IVag: intravaginal 30 mg/kg BID for 5 days in KY jelly): 0.005; bioavailability after intravaginal administration ([2]; calculated from the total dose (90 mg) administered intravaginally): < 1%; histological lesions in vagina, lungs, liver and kidneys ([2]; female rats receiving the intravenous solution): No histological lesions were observed; AUC ([2]; female, rat, plasma, 30 mg/kg, IVag: 30 mg/kg BID for 5 days, zero to 144 hr post dose, read-out: AUC(tf)): 1170 µg·h/mL; AUC ([2]; female, rat, plasma, 30 mg/kg, IVag: 30 mg/kg BID for 5 days, zero to infinity, read-out: AUC(I)): 2280 µg·h/mL; half-life ([2]; female, rat, plasma, 30 mg/kg, intravaginal administration, read-out: mean half-life (converted)): ~132 h; bioavailability ([2]; female, rat, plasma, 90 mg, calculated from the total dose (90 mg) administered intravaginally, read-out: bioavailability after intravaginal administration): 0.8%; half-life ([2]; female, rat, plasma, iv, 30 mg/kg, IV: single dose 30 mg/kg, read-out: t½ (converted)): 68.5 h; AUC ([2]; female, rat, plasma, iv, 30 mg/kg, IV: single dose 30 mg/kg, zero to 144 hr post dose, read-out: AUC(tf)): 13900 µg·h/mL; AUC ([2]; female, rat, plasma, iv, 30 mg/kg, IV: single dose 30 mg/kg, zero to infinity, read-out: AUC(I)): 17300 µg·h/mL; clearance [2, 3]: 0.0292 mL/min; Vd [2, 3]: 0.147 L/kg; Cmax ([2]; female, rat, plasma, IV: single intravenous dose of 30 mg/kg, at 1 hour): 563 µg/mL; clearance [2, 4]: 0.0001 mL/min; Cmax ([2]; female, rat, plasma, IVag: 30 mg/kg BID for 5 days, at 3.5 hours following the last dose): 17.7 µg/mL; Vd [2, 4]: 0.132 L/kg
